Measured values taken from patent publication US20100143313A1, “HOMOGENEOUS DIFFERENTIATION OF HEPATOCYTE-LIKE CELLS FROM EMBRYONIC STEM CELLS” (THE GENERAL HOSPITAL CORPORATION, priority 2008, published 2010).

Tests used:
Assay type in all cases: cell-based, murine
ESDE cells [1] = test: RT-PCR gene expression of ESDE cells after agonist induction; conditions: for Transcriptional expression of tyrosine aminotransferase (Tat) / expression of albumin (Alb) and cytochrome P450 subunit 3a13 (Cyp3a13) mRNA: RT-PCR; for Transcriptional expression of tyrosine aminotransferase (Tat): over culture time; for expression of albumin (Alb) and cytochrome P450 subunit 3a13 (Cyp3a13) mRNA: day twenty-two, increased at day thirty
Description: Similarly, glucose-6-phosphatase (G6pc) mRNA expression could only be detected with DMSO or RA stimulation. […] Visceral endoderm marker Sox7 was also weakly expressed in every condition except with DMSO induction.
(§1) At day fourteen of culture, the ES cells were stimulated with the chemical agonists listed on Table 1 (above) in high glucose or low glucose DMEM supplemented with 10% FBS and 0.2 μM dexamethasone. The media with chemical agonists were exchanged every other day until day twenty. At day twenty of culture, the ES cells were cultured without the chemical agonists in high glucose or low glucose DMEM supplemented with 10% FBS and 0.2 μM dexamethasone. The ES cells were cultured up to day fifty with media exchange every other day.
RNA isolation was performed using the Nucleospin RNAII protocol (Clontech, Mountain View, Calif., USA). Following the removal of genomic DNA with DNase, the column was washed and RNA was eluted with distilled water. The RNA purity was quantified using the absorbance ratio at 260 nm (nucleic acids) and 280 nm (protein) and was greater than 1.9. One-Step RT-PCR kit (Qiagen, Valencia, Calif., USA) was used to analyze gene expression. Reactions were initiated using 10 ng RNA and 0.6 μM primer. RT reaction was conducted at 50° C. and 95° C. for 15 min. Three-step cycling was performed: denaturation at 94° C. for 30 s, annealing at 55° C. for 30 s, and extension at 72° C. for 1 min, with a final extension time of 10 min at 72° C. The number of cycles varied between 30 and 35. Following PCR, samples were run on a 2% agarose gel, stained with ethidium bromide, and imaged using the Fluor-X Multiimager (Bio-Rad, Hercules, Calif., USA). Mouse liver total RNA (Ambion, Austin, Tex., USA) was used as a control for hepatocyte gene expression. Markers: Foxa2, AFP, Sox 17, Albumin, GATA1, Runx2, Foxf1, NKx2.5, Tal1, Pax 6, AAT, CK8, CK18, TTR, CYP3A13, Brachyury, Goosecoid, β-actin.

ESDE cells [2] = test: Urea secretion of ESDE cells into culture media (colorimetric assay); conditions: DMSO-stimulated ESDE cells
Description: (§2) FIGS. 3A and 3B are bar graphs showing albumin and urea secretion rates of hepatocyte-like cells. Albumin secretion was measured at various timepoints by ELISA (3A). Urea secretion was measured with a colorimetric assay (3B). […] Urea and albumin secretion rates increased up to forty days of culture. […] Values represent mean±SD of two experiments and repeated in triplicate.
(§3) The maturation of ESDE cells into functional hepatocytes was evaluated by measuring the secretion of albumin and urea into the culture media (FIG. 3). […] Neither albumin nor urea secretion was detectable before day twenty in any of the other conditions tested.
as §1, with “The ES cells were cultured up to day fifty with media exchange every other day.” left out
(§4) Collected medium samples were analyzed for secreted concentrations of mouse albumin by ELISA. […] Urea content was determined with diacetyl monoxime using a commercially available kit (StanBio Laboratory, Boerne, Tex.). The absorbance was measured with a Thermomax microplate reader (Molecular Devices, Sunnyvale, Calif.).

ESDE cells [3] = test: Albumin secretion of ESDE cells into culture media (ELISA); conditions: DMSO induction, low glucose
Description: as §2, §3
as §1, with “The ES cells were cultured up to day fifty with media exchange every other day.” left out
as §4

[4] = system: cytochrome P450 activity (CYP1A1); test: EROD assay for inducible cytochrome P450 activity; conditions: two-day exposure to 3-methylcholanthrene, day 36
Description: Day-thirty-four ES-derived cells were stimulated with 2 mM 3-methycholanthrene (3-MC) for two days. The conversion of ethyoxyresorufin to fluorescent resorufin was assayed on day thirty-six of culture. Values represent mean±SEM of three experiments and repeated in duplicate.
The EROD assay was used to measure inducible cytochrome P450 activity (CYP1A1) of the hepatocyte-like cells.
The drug metabolizing activity of the ES cell-derived hepatocytes were evaluated using an ethoxyresorufin 0-de-ethylase (EROD) assay. Day thirty-four ES cells were stimulated with 2 mM 3 methycholanthrene (3-MC) for two days. On day 36, the media was replaced with 10 μM ethoxyresorufin (Invitrogen) and 80 μM dicumarol (Sigma) in Earle's Balanced Salt Solution. Solution samples were collected at 5, 15, 25, and 35 minutes after the introduction of substrates. The increase in fluorescence intensity caused by conversion of ethyoxyresorufin to fluorescent resorufin estimates the CYP1A1 activity in hepatocytes.

ESDE cells [5] = test: Glycogen staining (periodic acid-Schiff); conditions: after thirty-two days of differentiation
Description: Rat primary hepatocytes are capable of secreting albumin at a rate of approximately 2.0 μg/hour/10^6 cells, and the mouse hepatocarcinoma cell line Hepal-6 can produce albumin at a rate of 4.7 μg/hour/10^6 cells. The ability of the ES-derived hepatocyte-like cells to produced and store glycogen was assessed using a periodic acid-Schiff stain. […] The capacity for the hepatocyte-like cells to actively synthesize glycogen was seen after the culture media was switched from the low-glucose differentiation media to high-glucose DMEM supplemented with 10% FBS and 0.2 μM dexamethasone for two days. More intense magenta staining of the hepatocyte-like cells was found after the two-day incubation in high-glucose media.
Periodic acid-Schiff staining kit was purchased from Sigma. Cells were fixed with 4% paraformaldehyde in PBS for 20 minutes at room temperature. Staining procedures were performed according to manufacturer's instruction.

[6] = system: albumin promoter-driven GFP expression in ES-derived endoderm (ESDE) cells; test: Screening of agonists for albumin promoter-driven GFP expression in ES-derived endoderm (ESDE) cells, flow cytometry; conditions: agonist d14-d20, 2% DMSO, 1 μM Azacytidine, 1 μM Retinoic Acid, 100 μM SNAP, 1 μM A23187, 1 nM vasopressin, 200 μM IBMX, 2 mM phenobarbital, 10 mM nicotinamide, 0.1 μM PGE2; for Cell fraction of day 30 ES-derived cells positive for albumin promoter-driven GFP expression, High Glucose: high glucose DMEM; for Cell fraction of day 30 ES-derived cells positive for albumin promoter-driven GFP expression, Low Glucose: low glucose DMEM
Description: A transgenic ES cell for enhanced green fluorescence protein (GFP) driven by the albumin promoter was used or the purpose of quickly screening different stimulants for hepatic differentiation. After a total of 30 days of differentiation, the various agonists were evaluated for their ability to induce ES-derived endoderm (ESDE) to express the albumin gene. When the ESDE cells were cultured in high glucose conditions, none of the agonists tested were able to increase cell population fraction positive for GFP expression over 10% (Table 1):
Additionally, for the purpose of quickly screening different stimulants for hepatic differentiation, a transgenic ES cell for enhanced green fluorescence protein (GFP) driven by the albumin promoter was used for these preliminary studies. The transgenic murine J1 cell line was obtained from the National Cancer Center Research Institute (Tokyo, Japan). The murine ES cell line D3 (ATCC, Manassas, Va.) was also used to assess the differentiation of ES cells into endoderm and hepatic lineage cells. Undifferentiated ES cells were cultured in Knockout DMEM (Gibco), supplemented with 15% replacement serum, 4 mM L-glutamine (Gibco), 100 U/mL penicillin (Gibco), 100 U/ml streptomycin (Gibco), 10 μg/mL gentamycin (Gibco), 1000 units/mL Leukemia Inhibitory Factor (LIF; Chemicon International, Temecula, Calif.), and 0.1 mM 2-mercaptoethanol (Gibco) on 0.1% gelatin-coated T-75 tissue culture flasks. Culture medium was replaced every day and cells were passaged at dilutions ranging from 1:5 to 1:20 at least once a week. Cells were cultured at 37° C. and in a 5% CO2 incubator.
To isolate the ES-derived cells in co-culture, the ES cells cultured on top of collagen sandwiched hepatocytes were incubated with dispase (1 mg/mL) (Gibco) for 30-60 min at 37° C. After incubation, the ES-derived cells were detached by gentle pipetting. The collagen-sandwiched hepatocytes remained at the bottom of the dish, thus allowing separation of the ES-derived cells from the primary hepatocytes. The isolated ES-derived cells were replated (day 10) on collagen gel coated 35-mm dishes at a density of 400,000 ES-derived cells per dish and cultured in high glucose DMEM supplemented with 10% FBS, 100 ng/mL oncostatin-M (Sigma), 0.2 μM dexamethasone (Sigma), and insulin/transferrin/selenious acid (5 μg/mL, 5 μg/mL, 5 ng/mL, respectively) (BD Biosciences, San Jose, Calif.). The replated cells were allowed to recover for four days before induction of hepatocyte differentiation. […]
Alternatively, Cells were detached from the collagen surface using 10 U/ml collagenase and 1 U/ml dispase in serum-free DMEM for 30 minutes. […] Collected cells were analyzed by flow cytometry (Epics Altra; Becton Dickinson). FACS data was analyzed using CellQuest software. […]

Row | Compound | glucose-6-phosphatase (G6pc) mRNA expression (ESDE cells [1]; RT-PCR after induction) | Transcriptional expression of tyrosine aminotransferase (Tat) (ESDE cells [1]) | expression of albumin (Alb) and cytochrome P450 subunit 3a13 (Cyp3a13) mRNA (ESDE cells [1]) | Cell fraction of day 30 ES-derived cells positive for albumin promoter-driven GFP expression, High Glucose [6] [%] | Cell fraction of day 30 ES-derived cells positive for albumin promoter-driven GFP expression, Low Glucose [6] [%] | further results
1 | CC1=C(/C=C/C(C)=C/C=C/C(C)=C/C(=O)O)C(C)(C)CCC1 [Retinoic Acid, all-trans retinoic acid] | detected | highest at day thrity | could be detected by day twenty-two | – | – | –
2 | C[S+](C)[O-] [DMSO, Dimethyl sulfoxide] | detected | highest at day thrity | could be detected by day twenty-two | – | – | urea secretion rate (ESDE cells [2]; day 22): 0.36 μg/hour/106 cells; urea secretion rate (ESDE cells [2]; day forty): 2.45 μg/hour/10^6 cells; albumin secretion rate (ESDE cells [3]; day forty): 3.09 μg/hour/10^6 cells; albumin secretion rate (ESDE cells [3]; day twenty-two): 0.34 μg/hour/10^6 cells; EROD activity compared to cells cultured in high glucose media without DMSO stimulation [4]: 20 fold; EROD activity over cells cultured in low glucose media without DMSO stimulation [4]: 4.5 fold; Definitive endoderm marker Sox17 expression (ESDE cells [1]; RT-PCR after induction): down-regulated; glycogen stores (periodic acid-Schiff stain) (ESDE cells [5]): visible glycogen stores
3 | CCCCC[C@H](O)/C=C/[C@H]1[C@H](O)CC(=O)[C@@H]1C/C=C\CCCC(=O)O [PGE2, prostaglandin E2] | – | – | – | 7.8 | 57 | –
4 | NC(=O)CC[C@@H]1NC(=O)[C@H](Cc2ccccc2)NC(=O)[C@H](Cc2ccc(O)cc2)NC(=O)[C@@H](N)CSSC[C@@H](C(=O)N2CCC[C@H]2C(=O)N[C@@H](CCCN=C(N)N)C(=O)NCC(N)=O)NC(=O)[C@H](CC(N)=O)NC1=O [vasopressin] | – | – | – | 4.5 | 59 | –
